From patent US20050143430A1, “Catechol bioisosteres” (priority 2002, published 2005)

Biological target: Insulin-like Growth Factor 1 Receptor (IGF-1R) (Homo sapiens, UniProt P08069)
Experiment: IGF-1R inhibition in vitro
Type: biochemical

Chain of Insulin-like Growth Factor 1 Receptor (IGF-1R) (P08069 31-1367, species assumed): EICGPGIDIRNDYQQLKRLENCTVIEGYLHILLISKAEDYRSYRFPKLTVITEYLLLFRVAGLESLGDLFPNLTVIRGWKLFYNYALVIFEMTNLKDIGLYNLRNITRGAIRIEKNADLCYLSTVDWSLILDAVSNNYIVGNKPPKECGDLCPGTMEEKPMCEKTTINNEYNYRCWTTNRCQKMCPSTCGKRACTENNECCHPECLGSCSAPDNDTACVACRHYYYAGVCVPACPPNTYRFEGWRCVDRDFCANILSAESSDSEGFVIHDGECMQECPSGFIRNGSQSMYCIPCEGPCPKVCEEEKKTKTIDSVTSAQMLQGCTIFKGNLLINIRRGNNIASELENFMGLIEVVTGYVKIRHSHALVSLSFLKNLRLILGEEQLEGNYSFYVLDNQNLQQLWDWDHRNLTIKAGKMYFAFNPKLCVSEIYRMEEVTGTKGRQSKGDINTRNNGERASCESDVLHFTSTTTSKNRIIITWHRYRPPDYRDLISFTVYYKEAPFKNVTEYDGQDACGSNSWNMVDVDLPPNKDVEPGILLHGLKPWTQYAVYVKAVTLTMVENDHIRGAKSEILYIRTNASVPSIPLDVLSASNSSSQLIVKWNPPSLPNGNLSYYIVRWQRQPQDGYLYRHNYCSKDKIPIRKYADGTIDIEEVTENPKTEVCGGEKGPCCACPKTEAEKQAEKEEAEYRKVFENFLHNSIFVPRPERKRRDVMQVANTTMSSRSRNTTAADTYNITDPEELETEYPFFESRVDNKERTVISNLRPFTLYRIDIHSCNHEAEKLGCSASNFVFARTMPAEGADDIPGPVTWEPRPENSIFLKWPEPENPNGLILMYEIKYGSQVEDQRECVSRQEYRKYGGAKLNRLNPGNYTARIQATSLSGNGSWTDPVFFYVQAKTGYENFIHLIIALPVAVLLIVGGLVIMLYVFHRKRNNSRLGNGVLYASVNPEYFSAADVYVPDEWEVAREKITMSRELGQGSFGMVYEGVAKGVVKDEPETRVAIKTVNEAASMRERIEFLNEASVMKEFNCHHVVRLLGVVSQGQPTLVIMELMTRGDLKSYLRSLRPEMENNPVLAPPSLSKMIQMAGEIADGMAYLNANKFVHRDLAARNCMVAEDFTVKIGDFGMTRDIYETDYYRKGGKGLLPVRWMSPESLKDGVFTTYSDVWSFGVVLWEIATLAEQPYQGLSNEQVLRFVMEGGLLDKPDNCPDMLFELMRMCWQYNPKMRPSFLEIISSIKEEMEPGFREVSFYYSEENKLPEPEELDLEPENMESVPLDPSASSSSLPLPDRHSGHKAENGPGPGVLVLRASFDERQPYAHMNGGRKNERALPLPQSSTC

IC50	SMILES
200 nM	N#CC(=Cc1ccc(O)c(O)c1)C(=O)c1ccc2[nH]c(=O)oc2c1 (single isomer, unassigned) [GB16-11]
1200 nM	N#CC(=Cc1ccc(O)c(O)c1)C(=O)c1ccc2[nH]c(=O)oc2c1 (single isomer, unassigned) [GB 16-10]
60 nM	N#C/C(=C\c1ccc(O)c(O)c1)C(=O)c1ccc(O)c(O)c1 [AG 538, reference compound]
70 nM	N#C/C(=C\c1ccc2oc(=O)[nH]c2c1)C(=O)c1ccc(O)c(O)c1 [AGL 2263]
4200 nM	N#C/C(=C\c1ccc2[nH]c(=O)oc2c1)C(=O)c1ccc2[nH]c(=O)oc2c1 [GB18]
12000 nM	N#C/C(=C\c1ccc2oc(=O)[nH]c2c1)C(=O)c1ccc2[nH]c(=O)oc2c1 [GB 17]
